Reference: paper PMC7113723 (Antiviral Research, 2017)
Where two headings read alike, the source gives them in different places.

Tests used:
HCoV-229E [1] = assay: microbe, parasite or virus in culture; assay type: cell-based; settings: Human coronavirus 229E, Huh-7, 24 h
Cell toxicity, MTT assay = settings: human, PBMCs
HCoV-229E [2] = assay: microbe, parasite or virus in culture; assay type: cell-based; settings: Human coronavirus 229E, PBMC
5′ UTR of PIM1 = assay type: cell-based
HCoV-229E [3] = assay: microbe, parasite or virus in culture; assay type: cell-based; settings: Human coronavirus 229E, MRC5, 24 h
5′ UTR of HCoV-229E = assay type: cell-based, human coronavirus 229E
[4] = system: 5′ UTR of the ß-actin mRNA; assay type: cell-based
HCoV-229E [5] = assay type: cell-based, human coronavirus 229E; settings: Huh-7 cells, MOI 3
HCoV-229E [6] = assay: Immunofluorescence of viral dsRNA and nsp8 in HCoV-229E-infected MRC-5 cells; assay type: cell-based, human coronavirus 229E; settings: MRC-5, MOI 3, 12 h p.i.
HCoV-229E [7] = assay type: cell-based, human coronavirus 229E; settings: MRC-5 cells, 10 nM silvestrol, MOI 3, 12 h and 48 h p.i.
5′ UTR of MERS-CoV = assay type: cell-based, Middle East Respiratory Syndrome coronavirus
[8] = system: 5′ UTR of the classical swine fever virus (CSFV); assay type: cell-based
HRV A1 [9] = assay: microbe, parasite or virus in culture; assay type: cell-based, human rhinovirus A1; settings: Rhinovirus A, HeLa, 24 h
EBOV 5′ UTR VP40 = assay type: cell-based, Ebola virus
PV [10] = assay: microbe, parasite or virus in culture; assay type: cell-based, poliovirus type 1; settings: Enterovirus C, MRC5, 24 h
MERS-CoV = assay: microbe, parasite or virus in culture; assay type: cell-based, Middle East Respiratory Syndrome coronavirus
EBOV 5′ UTR L = assay type: cell-based, Ebola virus
PV [11] = assay: microbe, parasite or virus in culture; assay type: cell-based, poliovirus type 1
EBOV = settings: cited from earlier work
HRV A1 [12] = assay: microbe, parasite or virus in culture; assay type: cell-based, human rhinovirus A1; settings: Rhinovirus A, MRC5, 24 h
[13] = ref Saradhi et al., 2011; cited from earlier work
[14] = Middle East respiratory syndrome-related coronavirus, MRC5, 24 h

**Q.** With `COC(=O)[C@H]1[C@@H](O)[C@@]2(O)c3c(OC)cc(O[C@@H]4O[C@@H]([C@H](O)CO)CO[C@H]4OC)cc3O[C@@]2(c2ccc(OC)cc2)[C@@H]1c1ccccc1` [silvestrol] as the compound, how does the EC50 (HCoV-229E [1]) read?
**A.** The EC50 was 40 nM.

**Q.** And the EC90 (HCoV-229E [1])?
**A.** Its EC90 is 360 nM.

**Q.** What about the CC50 at 24 h (Cell toxicity, MTT assay) of the same compound?
**A.** The CC50 at 24 h was > 1000 nM.

**Q.** What about the EC50 (HCoV-229E [2]) of the same compound?
**A.** Its EC50 is 3.5 nM.

**Q.** What about the EC50 (HCoV-229E [2]; 24 h) of the same compound?
**A.** The EC50 was 2.8 nM.

**Q.** What about the EC90 (HCoV-229E [2]; 24 h) of the same compound?
**A.** Its EC90 is 25 nM.

**Q.** What about the “inhibition of firefly luciferase expression” value (5′ UTR of PIM1) of the same compound?
**A.** Its value is ~40%.

**Q.** And the EC50 (HCoV-229E [3])?
**A.** Its EC50 is 3 nM.

**Q.** And the EC90 (HCoV-229E [3])?
**A.** Its EC90 is 27 nM.

**Q.** What about the “decrease of luciferase activity” value (5′ UTR of HCoV-229E) of the same compound?
**A.** The value was ~40%.

**Q.** And the “inhibition of firefly luciferase expression” value [4]?
**A.** Its value is “not more than 10%”.

**Q.** And the “N and nsp8 protein accumulation (Western blot)” value (shortened to “N and nsp8 protein accumulation”) (HCoV-229E [5]; 100 nM silvestrol)?
**A.** The value was “essentially undetectable”.

**Q.** What about the “N and nsp8 protein accumulation” value (HCoV-229E [5]; silvestrol up to 10 nM) of the same compound?
**A.** The value was “unaffected”.

**Q.** What about the “viral dsRNA and nsp8 protein (immunofluorescence)” value (HCoV-229E [6]; 10 nM silvestrol) of the same compound?
**A.** The value was “significant decrease”.

**Q.** What about the “viral dsRNA and nsp8 protein (immunofluorescence)” value (HCoV-229E [6]; 100 nM silvestrol) of the same compound?
**A.** Its value is “nearly no viral dsRNA and nsp8 could be detected”.

**Q.** What about the “N and nsp8 protein accumulation” value (HCoV-229E [7]) of the same compound?
**A.** The value was “very low amounts”.

**Q.** And the “decrease of luciferase activity” value (5′ UTR of MERS-CoV)?
**A.** Its value is ~40%.

**Q.** What about the “sensitivity towards silvestrol in the dual luciferase assay” value [8] of the same compound?
**A.** The value was “no sensitivity”.

**Q.** And the EC50 (HRV A1 [9])?
**A.** The EC50 was 400 nM.

**Q.** What about the EC90 (HRV A1 [9]) of the same compound?
**A.** The EC90 was 3600 nM.

**Q.** And the “decrease of firefly luciferase activity” value (EBOV 5′ UTR VP40)?
**A.** Its value is 23%.

**Q.** And the EC50 (PV [10])?
**A.** The EC50 was ~20 nM.

**Q.** And the EC90 (PV [10])?
**A.** The EC90 was 180 nM.

**Q.** And the “SI, selectivity index” value (MERS-CoV)?
**A.** The value was >7690.

**Q.** And the EC50 (MERS-CoV; [14])?
**A.** The EC50 was 1.3 nM.

**Q.** And the EC90 (MERS-CoV; [14])?
**A.** The EC90 was 12 nM.

**Q.** What about the “decrease of firefly luciferase activity” value (EBOV 5′ UTR L) of the same compound?
**A.** The value was 33%.

**Q.** What about the “SI, selectivity indices” value (PV [11]) of the same compound?
**A.** The value was ≤ 1.6.

**Q.** And the EC50 (PV [11]; Enterovirus C, Vero, 24 h)?
**A.** The EC50 was 100 nM.

**Q.** What about the EC90 (PV [11]; Enterovirus C, Vero, 24 h) of the same compound?
**A.** The EC90 was 900 nM.

**Q.** What about the EBOV titers (EBOV) of the same compound?
**A.** The EBOV titers was “strongly reduce EBOV titers”.

**Q.** And the EC50 (HRV A1 [12])?
**A.** The EC50 was ~100 nM.

**Q.** What about the EC90 (HRV A1 [12]) of the same compound?
**A.** Its EC90 is 900 nM.

**Q.** What about the “pharmacokinetics in terms of bioavailability and biostability” value [13] of the same compound?
**A.** Its value is “favorable pharmacokinetics”.
